Structures are written as SMILES.

In patent US20170334899A1, “AMINO-SUBSTITUTED ISOTHIAZOLES” (Bayer Pharma Aktiengesellschaft, priority 2014, published 2017) one finds IC50 data, which are given here for 24 compounds.

The target of this test is T1, human kinase Mps-1 (Homo sapiens, UniProt P33981).
T1 construct: N-terminally GST-tagged human full length recombinant Mps-1 kinase; GST (N); purchased Invitrogen, Karslruhe, Germany PV4071
T1 sequence (P33981 1-857): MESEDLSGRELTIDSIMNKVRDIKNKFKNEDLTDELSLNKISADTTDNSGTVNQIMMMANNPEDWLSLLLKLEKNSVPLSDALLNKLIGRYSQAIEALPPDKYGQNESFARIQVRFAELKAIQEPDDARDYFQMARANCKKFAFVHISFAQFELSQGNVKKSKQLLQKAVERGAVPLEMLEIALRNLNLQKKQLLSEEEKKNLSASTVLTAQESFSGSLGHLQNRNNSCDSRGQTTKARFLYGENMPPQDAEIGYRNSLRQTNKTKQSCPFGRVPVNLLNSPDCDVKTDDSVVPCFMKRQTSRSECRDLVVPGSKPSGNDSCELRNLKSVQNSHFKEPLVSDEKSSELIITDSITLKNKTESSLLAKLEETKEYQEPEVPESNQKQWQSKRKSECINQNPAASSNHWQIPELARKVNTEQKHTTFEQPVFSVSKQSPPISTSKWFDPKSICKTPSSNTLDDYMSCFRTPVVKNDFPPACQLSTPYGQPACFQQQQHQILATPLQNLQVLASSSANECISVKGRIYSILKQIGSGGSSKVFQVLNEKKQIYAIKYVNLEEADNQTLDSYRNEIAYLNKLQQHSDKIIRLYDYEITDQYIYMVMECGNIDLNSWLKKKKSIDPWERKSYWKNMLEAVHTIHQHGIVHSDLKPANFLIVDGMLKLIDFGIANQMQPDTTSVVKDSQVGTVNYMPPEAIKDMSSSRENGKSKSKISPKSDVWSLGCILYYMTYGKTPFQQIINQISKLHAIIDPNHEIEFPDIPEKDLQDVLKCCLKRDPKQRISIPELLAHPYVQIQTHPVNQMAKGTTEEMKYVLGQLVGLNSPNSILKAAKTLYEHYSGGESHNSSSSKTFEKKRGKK
Briefly: Mps-1 kinase assay (TR-FRET). To be noted: Mps-1 TR-FRET kinase assay; avg; read-out: Mps1 avg (IC50 [mol/l]). Type of test: biochemical. An outline of the steps: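 GST-tagged full-length recombinant human Mps-1 (~0.5 nM) pre-incubated 15 min with compound, then reacted 60 min at 22 °C with 10 μM ATP and 1 μM biotinylated peptide in Hepes pH 7.7 buffer. EDTA-stopped; TR-FRET (Eu anti-phospho-Ser/Thr to SA-XLent) 665/620 nm ratio normalised to no-inhibitor and no-enzyme controls.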

`Cc1nsc(Nc2cnc(C(F)(F)F)cn2)c1C(=O)Nc1ccc(OCCCN(C)CC(F)F)nc1` [Example 353, N-(6-{3-[(2,2-difluoroethyl)(methyl)amino]propoxy}pyridin-3-yl)-3-methyl-5-{[5-(trifluoromethyl)pyrazin-2-yl]amino}-1,2-thiazole-4-carboxamide]: the IC50 is 19 µM.

As for `Cc1nsc(Nc2cnc(C(F)(F)F)cn2)c1C(=O)Nc1ccc(O[C@@H]2CCN(CC(F)F)C[C@H]2F)nc1` [Example 366, N-(6-{[(3R,4R)-1-(2,2-difluoroethyl)-3-fluoropiperidin-4-yl]oxy}pyridin-3-yl)-3-methyl-5-{[5-(trifluoromethyl)pyrazin-2-yl]amino}-1,2-thiazole-4-carboxamide], the IC50 was over 20 µM.

Turning to `Cc1nsc(Nc2cnc(C(F)(F)F)cn2)c1C(=O)Nc1ccc(OC2CCCN(CCF)C2)nc1` (stereo not drawn) [Example 329, N-(6-{[1-(2-fluoroethyl)piperidin-3-yl]oxy}pyridin-3-yl)-3-methyl-5-{[5-(trifluoromethyl)pyrazin-2-yl]amino}-1,2-thiazole-4-carboxamide], the IC50 is at least 20 µM.

In the case of `Cc1nsc(Nc2cnc3ccccc3n2)c1C(=O)Nc1ccc(OC2CCCN(CC(F)F)C2)nc1` (stereo not drawn) [Example 33, N-(6-{[1-(2,2-Difluoroethyl)piperidin-3-yl]oxy}pyridin-3-yl)-3-methyl-5-(quinoxalin-2-ylamino)-1,2-thiazole-4-carboxamide], the IC50 was at least 20 µM.

As for `Cc1nsc(Nc2cnc(C(F)(F)F)cn2)c1C(=O)Nc1ccc(OCCNCCC(F)(F)F)nc1` [Example 323, 3-methyl-5-{[5-(trifluoromethyl)pyrazin-2-yl]amino}-N-(6-{2-[(3,3,3-trifluoropropyl)amino]ethoxy}pyridin-3-yl)-1,2-thiazole-4-carboxamide], the IC50 was at least 20 µM.

For `Cc1nsc(Nc2ccc(C#N)cn2)c1C(=O)Nc1ccc(OC2CCNCC2)nc1` [Example 28, 5-[(5-Cyanopyridin-2-yl)amino]-3-methyl-N-[6-(piperidin-4-yloxy)pyridin-3-yl]-1,2-thiazole-4-carboxannide], the IC50 was at least 20 µM.

With `Cc1nsc(Nc2cnc(C(F)(F)F)cn2)c1C(=O)Nc1ccc(F)c(OCC2CCCN(CC(F)F)C2)c1` (stereo not drawn) [Example 334, N-(3-{[1-(2,2-difluoroethyl)piperidin-3-yl]methoxy}-4-fluorophenyl)-3-methyl-5-{[5-(trifluoromethyl)pyrazin-2-yl]amino}-1,2-thiazole-4-carboxamide], the IC50 was at least 20 µM.

Consider `Cc1nsc(Nc2cnc(C(F)(F)F)cn2)c1C(=O)Nc1ccc(OC2CCN(C(CF)CF)CC2)nc1` [Example 324, N-(6-{[1-(1,3-difluoropropan-2-yl)piperidin-4-yl]oxy}pyridin-3-yl)-3-methyl-5-{[5-(trifluoromethyl)pyrazin-2-yl]amino}-1,2-thiazole-4-carboxamide], for which the IC50 is at least 20 µM.

On to `Cc1nsc(Nc2cnc(C(F)(F)F)cn2)c1C(=O)Nc1ccc(OCCN(C)CCC(F)(F)F)nc1` [Example 351, 3-methyl-N-(6-{2-[methyl(3,3,3-trifluoropropyl)amino]ethoxy}pyridin-3-yl)-5-{[5-(trifluoromethyl)pyrazin-2-yl]amino}-1,2-thiazole-4-carboxamide], for which the IC50 is over 20 µM.

Turning to `Cc1nsc(Nc2cnc(C(F)(F)F)cn2)c1C(=O)Nc1ccc(O[C@H]2CCN(CC(F)F)C[C@@H]2F)nc1` [Example 362], the IC50 was over 20 µM.

As for `Cc1nsc(Nc2cnc(C(F)(F)F)cn2)c1C(=O)Nc1ccc(F)c(OCC2CCCN(CCC(F)(F)F)C2)c1` (stereo not drawn) [Example 338, N-(4-fluoro-3-{[1-(3,3,3-trifluoropropyl)piperidin-3-yl]methoxy}phenyl)-3-methyl-5-{[5-(trifluoromethyl)pyrazin-2-yl]amino}-1,2-thiazole-4-carboxamide], the IC50 is at least 20 µM.

On to `Cc1nsc(Nc2cnc(C(F)(F)F)cn2)c1C(=O)Nc1ccc(C2CCN(CC(F)F)CC2)nc1` [Example 357, N-{6-[1-(2,2-difluoroethyl)piperidin-4 yl]pyridin-3-yl}-3-methyl-5-{[5-(trifluoromethyl)pyrazin-2-yl]amino}-1,2-thiazole-4-carboxamide], for which the IC50 is over 20 µM.

`Cc1nsc(Nc2cnc(C(F)(F)F)cn2)c1C(=O)Nc1ccc(O[C@@H]2CCN(CC(F)(F)F)C[C@H]2F)nc1` [Example 367, N-(6-{[(3R,4R)-3-fluoro-1-(2,2,2-trifluoroethyl)piperidin-4-yl]oxy}pyridin-3-yl)-3-methyl-5-{[5-(trifluoromethyl)pyrazin-2-yl]amino}-1,2-thiazole-4-carboxamide]: the IC50 is over 20 µM.

With `Cc1nsc(Nc2cc(C#N)ccn2)c1C(=O)Nc1ccc(OC2CCCN(C(=O)OC(C)(C)C)C2)nc1` (stereo not drawn) [Example 34, tert-Butyl 3({5-[({5-[(4-cyanopyridin-2-yl)amino]-3-methyl-1,2-thiazol-4-yl}-carbonyl)amino]pyridin-2-yl}oxy)piperidine-1-carboxylate], the IC50 was at least 20 µM.

Take `Cc1nsc(Nc2cnc3ccccc3n2)c1C(=O)Nc1ccc(OC2CCCNC2)nc1` (stereo not drawn) [Example 32, 3-Methyl-N-[6-(piperidin-3-yloxy)pyridin-3-yl]-5-(quinoxalin-2-ylamino)-1,2-thiazole-4-carboxannide]: the IC50 is 15 µM.

On to `Cc1nsc(Nc2cnc(C(F)(F)F)cn2)c1C(=O)Nc1ccc(OCCN(C)CCF)nc1` [Example 348, N-(6-{2-[(2-fluoroethyl)(methyl)amino]ethoxy}pyridin-3-yl)-3-methyl-5-{[5-(trifluoromethyl)pyrazin-2-yl]amino}-1,2-thiazole-4-carboxamide], for which the IC50 was at least 20 µM.

Regarding `Cc1nsc(Nc2cncc(C(F)(F)F)n2)c1C(=O)Nc1ccc(F)c(OC2CCN(CCC(F)(F)F)CC2)c1` [Example 343, N-(4-fluoro-3-{[1-(3,3,3-trifluoropropyl)piperidin-4-yl]oxy}phenyl)-3-methyl-5-{[6-(trifluoromethyl)pyrazin-2-yl]amino}-1,2-thiazole-4-carboxamide], the IC50 was at least 20 µM.

As for `Cc1nsc(Nc2cnc(C(F)(F)F)cn2)c1C(=O)Nc1ccc(N2CCN(CC(F)(F)F)CC2)cn1` [Example 373, 3-methyl-N-{5-[4-(2,2,2-trifluoroethyl)piperazin-1-yl]pyridin-2-yl}-5-{[5-(trifluoromethyl)pyrazin-2-yl]amino}-1,2-thiazole-4-carboxamide], the IC50 was over 20 µM.

Take `Cc1nsc(Nc2cnc(C(F)(F)F)cn2)c1C(=O)Nc1ccc(OC2CCCN(CCC(F)(F)F)C2)nc1` (stereo not drawn) [Example 332, 3-methyl-5-{[5-(trifluoromethyl)pyrazin-2-yl]amino}-N-(6-{[1-(3,3,3-trifluoropropyl)piperidin-3-yl]oxy}pyridin-3-yl)-1,2-thiazole-4-carboxamide]: the IC50 was at least 20 µM.

As for `Cc1nsc(Nc2cnc(C(F)(F)F)cn2)c1C(=O)Nc1ccc(O[C@H]2CCN(CCC(F)(F)F)C[C@@H]2F)nc1` [Example 364, N-(6-{[(3S,4S)-3-fluoro-1-(3,3,3-trifluoropropyl)piperidin-4-yl]oxy}pyridin-3-yl)-3-methyl-5-{[5-(trifluoromethyl)pyrazin-2-yl]amino}-1,2-thiazole-4-carboxamide], the IC50 is over 20 µM.

For `Cc1nsc(Nc2cnc3ccccc3n2)c1C(=O)Nc1ccc(OC2CCCN(C(=O)OC(C)(C)C)C2)nc1` (stereo not drawn) [Example 31, tert-Butyl 3-{[5-({[3-methyl-5-(quinoxalin-2-ylamino)-1,2-thiazol-4-yl]carbonyl}-amino)pyridin-2-yl]oxy}piperidine-1-carboxylate], the IC50 was at least 20 µM.

Regarding `Cc1nsc(Nc2cnc(C(F)(F)F)cn2)c1C(=O)Nc1ccc(O[C@@H]2CCCN(CCC(F)(F)F)C2)nc1` [Example 387, 3-methyl-5-{[5-(trifluoromethyl)pyrazin-2-yl]amino}-N-(6-{[(3R)-1-(3,3,3-trifluoropropyl)piperidin-3-yl]oxy}pyridin-3-yl)-1,2-thiazole-4-carboxamide], the IC50 is at least 20 µM.

As for `Cc1nsc(Nc2cnc(C(F)(F)F)cn2)c1C(=O)Nc1ccc(OCC2CCN(CC(F)(F)F)CC2)nc1` [Example 346, 3-methyl-N-(6-{[1-(2,2,2-trifluoroethyl)piperidin-4-yl]methoxy}pyridin-3-yl)-5-{[5-(trifluoromethyl)pyrazin-2-yl]amino}-1,2-thiazole-4-carboxamide], the IC50 was over 20 µM.

For the compound `Cc1nsc(Nc2cnc(C(F)(F)F)cn2)c1C(=O)Nc1ccc(F)c(OCC2CCCN(CCF)C2)c1` (stereo not drawn) [Example 336, N-(4-fluoro-3-{[1-(2-fluoroethyl)piperidin-3-yl]methoxy}phenyl)-3-methyl-5-{[5-(trifluoromethyl)pyrazin-2-yl]amino}-1,2-thiazole-4-carboxamide], the IC50 is at least 20 µM.
